This note sets out measurements from US8648061B2, “Use of polyunsaturated fatty acids for the primary prevention of major cardiovascular events” (Pro Aparts Investimentos E. Consultoria LDA., priority 2001, dated 2014).

SMILES strings stand for the structures.

The series relates to non-anesthetized guinea pigs. Description: preliminary tests: minimum lethal dose of ouabain. The note with it: intravenously administered over 3 minutes. The class given is in vivo, guinea pig. As to the method: The experimental sudden death model was obtained by cardiac arrest induced by intravenous (i.v.) administration of a cardiotoxic agent (ouabain). In preliminary tests, various doses of ouabain were administered to non-anesthetized guinea pigs of both sexes of weight 300-380 g, in order to determine the minimum lethal dose for 100% of the animals within 15 minutes from i.v. injection (240 mg/kg, intravenously administered over 3 minutes).

Regarding `C[C@@H]1O[C@@H](O[C@H]2C[C@@H](O)[C@]3(CO)[C@H]4[C@H](O)C[C@]5(C)[C@@H](C6=CC(=O)OC6)CC[C@]5(O)[C@@H]4CC[C@]3(O)C2)[C@H](O)[C@H](O)[C@H]1O` [ouabain], the “minimum lethal dose for 100% of the animals within 15 minutes from i.v. injection” value amounted to 240 mg/kg.
